Laboratory results from ChEMBL document CHEMBL1201862, “PubChem BioAssay data set” (2004).
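In this assay, cells in 96-well plates receive the compound at five concentrations for 48 hours. Endpoints are linearly interpolated between the surrounding concentrations. GI50 = concentration required for 50% inhibition of growth.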 Active and inactive are the calls of the source. Cut-off read from the data, not from the text of the source: active = GI50 up to about 1.1 µM and inactive = higher.

Columns and labels:
Assay in all cases: NCI tumour cell line growth inhibition, 48 h
786-0 = test system: 786-0
BT-549 = test system: BT-549
DU-145 = test system: DU-145
EKVX = test system: EKVX
HCC 2998 = test system: HCC 2998
HOP-92 = test system: HOP-92
HT-29 = test system: HT-29
K562 = test system: K562
KM12 = test system: KM12
LOX IMVI = test system: LOX IMVI
M14 = test system: M14
MDA-MB-435 = test system: MDA-MB-435
Malme-3M = test system: Malme-3M
NCI-H226 = test system: NCI-H226
OVCAR-3 = test system: OVCAR-3
OVCAR-4 = test system: OVCAR-4
OVCAR-5 = test system: OVCAR-5
OVCAR-8 = test system: OVCAR-8
RXF 393 = test system: RXF 393
SK-MEL-28 = test system: SK-MEL-28
SK-MEL-2 = test system: SK-MEL-2
SK-OV-3 = test system: SK-OV-3
SW-620 = test system: SW-620
T47D = test system: T47D
TK-10 = test system: TK-10
UACC-257 = test system: UACC-257
A498 = test system: A498
A549 = test system: A549
ACHN = test system: ACHN
CAKI-1 = test system: CAKI-1
CCRF-CEM = test system: CCRF-CEM
COLO 205 = test system: COLO 205
HCT-116 = test system: HCT-116
HCT-15 = test system: HCT-15
HL-60 = test system: HL-60
HOP-62 = test system: HOP-62
Hs-578T = test system: Hs-578T
IGROV-1 = test system: IGROV-1
MCF7 = test system: MCF7
MDA-MB-231 = test system: MDA-MB-231
MOLT-4 = test system: MOLT-4
NCI-H23 = test system: NCI-H23
NCI-H460 = test system: NCI-H460
NCI-H522 = test system: NCI-H522
NCI/ADR-RES = test system: NCI/ADR-RES
PC-3 = test system: PC-3
RPMI-8226 = test system: RPMI-8226
SF-268 = test system: SF-268
SF-295 = test system: SF-295
SF-539 = test system: SF-539
SK-MEL-5 = test system: SK-MEL-5
SN12C = test system: SN12C
SNB-75 = test system: SNB-75
U-251 = test system: U-251
UACC-62 = test system: UACC-62
UO-31 = test system: UO-31
SNB-19 = test system: SNB-19
SR = test system: SR

For `COc1ccc(OC)c2c3c([nH]c12)C(=O)Nc1nc(N)nc(N)c1C3`, the GI50 (786-0) was > 100 µM (inactive), the GI50 (BT-549) was > 100 µM (inactive) and the GI50 (DU-145) was > 100 µM (inactive). The GI50 (EKVX) was > 100 µM (inactive), the GI50 (HCC 2998) was > 100 µM (inactive) and the GI50 (HOP-92) was > 100 µM (inactive). For the same compound, the GI50 (HT-29) was 1.12 µM (inactive), the GI50 (K562) was 0.634 µM (active) and the GI50 (KM12) was 4.57 µM (inactive). The GI50 (LOX IMVI) was > 100 µM (inactive), the GI50 (M14) was > 100 µM (inactive) and the GI50 (MDA-MB-435) was 0.273 µM (active). For the same compound, the GI50 (Malme-3M) was 30.8 µM (inactive), the GI50 (NCI-H226) was > 100 µM (inactive) and the GI50 (OVCAR-3) was 3.14 µM (inactive). The GI50 (OVCAR-4) was > 100 µM (inactive), the GI50 (OVCAR-5) was > 100 µM (inactive) and the GI50 (OVCAR-8) was 4.89 µM (inactive). The GI50 (RXF 393) was > 100 µM (inactive), the GI50 (SK-MEL-28) was > 100 µM (inactive) and the GI50 (SK-MEL-2) was > 100 µM (inactive). The GI50 (SK-OV-3) was > 100 µM (inactive), the GI50 (SW-620) was 2.07 µM (inactive) and the GI50 (T47D) was > 100 µM (inactive). The GI50 (TK-10) was > 100 µM (inactive) and the GI50 (UACC-257) was > 100 µM (inactive).
With `O=CC1C(=O)Nc2nc3ccccc3n2C1c1ccccc1` (stereo unspecified) the GI50 (786-0) was 12.4 µM (inactive), the GI50 (A498) was 14.3 µM (inactive) and the GI50 (A549) was 23.3 µM (inactive). The GI50 (ACHN) was 17.3 µM (inactive), the GI50 (BT-549) was 14.1 µM (inactive) and the GI50 (CAKI-1) was 21.1 µM (inactive). The GI50 (CCRF-CEM) was 4.38 µM (inactive), the GI50 (COLO 205) was 11.4 µM (inactive) and the GI50 (DU-145) was 12.7 µM (inactive). For the same compound, the GI50 (EKVX) was 22.5 µM (inactive), the GI50 (HCT-116) was 12.4 µM (inactive) and the GI50 (HCT-15) was 15.1 µM. For the same compound, the GI50 (HL-60) was 20.6 µM (inactive), the GI50 (HOP-62) was 5.06 µM (inactive) and the GI50 (HOP-92) was 12.4 µM (inactive). The GI50 (HT-29) was 20.4 µM (inactive), the GI50 (Hs-578T) was 31.6 µM (inactive) and the GI50 (IGROV-1) was 13.9 µM (inactive). For the same compound, the GI50 (K562) was 4.37 µM (inactive), the GI50 (KM12) was 14.6 µM (inactive) and the GI50 (LOX IMVI) was 11.1 µM (inactive). The GI50 (M14) was 16 µM (inactive), the GI50 (MCF7) was 10.6 µM (inactive) and the GI50 (MDA-MB-231) was 15.4 µM (inactive). For the same compound, the GI50 (MDA-MB-435) was 17.9 µM (inactive), the GI50 (MOLT-4) was 0.258 µM (active) and the GI50 (Malme-3M) was 18.8 µM (inactive). For the same compound, the GI50 (NCI-H226) was 17.1 µM (inactive), the GI50 (NCI-H23) was 19.2 µM (inactive) and the GI50 (NCI-H460) was 29.4 µM (inactive). For the same compound, the GI50 (NCI-H522) was 12.8 µM (inactive), the GI50 (NCI/ADR-RES) was 54.7 µM (inactive) and the GI50 (OVCAR-3) was 7.89 µM (inactive). The GI50 (OVCAR-4) was 24.7 µM (inactive), the GI50 (OVCAR-5) was 25.2 µM (inactive) and the GI50 (OVCAR-8) was 11.7 µM (inactive). For the same compound, the GI50 (PC-3) was 18.4 µM (inactive), the GI50 (RPMI-8226) was 16.3 µM (inactive) and the GI50 (RXF 393) was 0.183 µM (active). The GI50 (SF-268) was 12.1 µM (inactive), the GI50 (SF-295) was 20.9 µM (inactive) and the GI50 (SF-539) was 17.9 µM (inactive). The GI50 (SK-MEL-28) was 19.6 µM (inactive), the GI50 (SK-MEL-2) was 17.3 µM (inactive) and the GI50 (SK-MEL-5) was 14.6 µM (inactive). For the same compound, the GI50 (SN12C) was 5.7 µM (inactive), the GI50 (SNB-75) was 5.75 µM (inactive) and the GI50 (SW-620) was 17.8 µM (inactive). The GI50 (T47D) was < 0.01 µM (active), the GI50 (TK-10) was 28.6 µM (inactive) and the GI50 (U-251) was 14.4 µM (inactive). For the same compound, the GI50 (UACC-257) was 15 µM (inactive), the GI50 (UACC-62) was 15.7 µM (inactive) and the GI50 (UO-31) was 13.7 µM (inactive).
In the case of `Cn1cnc([N+](=O)[O-])c1[Se]c1ncnc2nc[nH]c12`, the GI50 (786-0) is reported as 10.4 µM (inactive), the GI50 (A498) is reported as 3.59 µM (inactive) and the GI50 (A549) is reported as 27.5 µM (inactive). The GI50 (ACHN) was 17.1 µM (inactive), the GI50 (BT-549) was 14.6 µM (inactive) and the GI50 (CAKI-1) was 0.925 µM (active). The GI50 (CCRF-CEM) was 9.51 µM (inactive), the GI50 (COLO 205) was 15.1 µM (inactive) and the GI50 (DU-145) was 19.1 µM (inactive). For the same compound, the GI50 (EKVX) was 21.2 µM (inactive), the GI50 (HCT-116) was 2.34 µM (inactive) and the GI50 (HCT-15) was 15.6 µM. The GI50 (HOP-62) was 12 µM (inactive), the GI50 (HOP-92) was 12.2 µM (inactive) and the GI50 (HT-29) was 10 µM (inactive). The GI50 (Hs-578T) was 3.7 µM (inactive), the GI50 (IGROV-1) was 3.38 µM (inactive) and the GI50 (K562) was 4.07 µM (inactive). The GI50 (KM12) was 5.69 µM (inactive), the GI50 (LOX IMVI) was 0.497 µM (active) and the GI50 (M14) was 5.47 µM (inactive). The GI50 (MCF7) was 13.6 µM (inactive), the GI50 (MDA-MB-231) was 5 µM (inactive) and the GI50 (MDA-MB-435) was 2 µM (inactive). The GI50 (MOLT-4) was 4.71 µM (inactive), the GI50 (Malme-3M) was 3.72 µM (inactive) and the GI50 (NCI-H226) was 10.5 µM (inactive). The GI50 (NCI-H23) was 17.3 µM (inactive), the GI50 (NCI-H460) was 22.1 µM (inactive) and the GI50 (NCI-H522) was 3.57 µM (inactive). For the same compound, the GI50 (NCI/ADR-RES) was 2.07 µM (inactive), the GI50 (OVCAR-3) was 2 µM (inactive) and the GI50 (OVCAR-4) was 3.32 µM (inactive). The GI50 (OVCAR-5) was 11.4 µM (inactive), the GI50 (OVCAR-8) was 8.79 µM (inactive) and the GI50 (PC-3) was 20.6 µM (inactive). For the same compound, the GI50 (RPMI-8226) was 5.01 µM (inactive), the GI50 (RXF 393) was 15.5 µM (inactive) and the GI50 (SF-268) was 7.46 µM (inactive). For the same compound, the GI50 (SF-295) was 4.21 µM (inactive), the GI50 (SF-539) was 13.4 µM (inactive) and the GI50 (SK-MEL-28) was 3.79 µM (inactive). For the same compound, the GI50 (SK-MEL-2) was 10.4 µM (inactive), the GI50 (SK-MEL-5) was 1.66 µM (inactive) and the GI50 (SK-OV-3) was 15.4 µM (inactive). For the same compound, the GI50 (SN12C) was 11.7 µM (inactive), the GI50 (SNB-19) was 24 µM (inactive) and the GI50 (SNB-75) was 19.6 µM (inactive). The GI50 (SR) was 2.04 µM (inactive), the GI50 (SW-620) was 10.3 µM (inactive) and the GI50 (T47D) was 15.2 µM (inactive). The GI50 (TK-10) was 1.91 µM (inactive), the GI50 (U-251) was 4.6 µM (inactive) and the GI50 (UACC-257) was 2.04 µM (inactive). The GI50 (UACC-62) was 1.77 µM (inactive) and the GI50 (UO-31) was 3.65 µM (inactive).
